# Data reported in BindingDB's records for patent US20230416245 (Biointervene, 2023).
# Molecular target: T1, Adenosine receptor A3 (Homo sapiens, UniProt P0DMS8)
# T1 sequence (P0DMS8 whole entry): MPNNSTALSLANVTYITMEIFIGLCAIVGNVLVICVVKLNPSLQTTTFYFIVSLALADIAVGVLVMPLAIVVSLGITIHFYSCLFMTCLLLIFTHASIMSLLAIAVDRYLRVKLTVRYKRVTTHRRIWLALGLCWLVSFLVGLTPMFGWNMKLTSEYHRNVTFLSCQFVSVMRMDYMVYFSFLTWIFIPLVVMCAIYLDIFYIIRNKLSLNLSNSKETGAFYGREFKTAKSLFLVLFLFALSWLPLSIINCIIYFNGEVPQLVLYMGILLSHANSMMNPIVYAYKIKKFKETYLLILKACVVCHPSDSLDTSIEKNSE
# Test: Adenosine Receptor Binding Assay
# Procedure: Radioligand-binding assays were performed using the adenosine A3 receptor agonist [125I]-AB-MECA and the A1 receptor agonist [3H]CCPA. Binding assays were conducted in a total volume of 100 μL containing a 50 mM Tris, pH 7.4 buffer with or without 10 mM MgCl2, 20 μg membranes and either 0.15 nM [125I]-AB-MECA (for the A3 receptor) or 1 nM [3H]CCPA (for the A1 receptor). Assays were conducted at room temperature for 60 min (A1 receptor) or 120 min (A3 receptor) and terminated by the addition of 2 ml of ice-cold wash buffer (50 mM Tris, pH 7.4 with or without 10 mM MgCl2) and rapid filtration over 0.03% polyethylenimine-treated Whatman GF/C filters using a Brandel cell harvester (Semat International Ltd., St Albans, UK). Filters were then washed three times with 2 ml of ice-cold buffer. The filter-bound radioactivity were counted using a Compugamma counter (LKB Wallac, Turku, Finland). Competition experiments were performed to investigate the ability of reference compounds and embodiments of the invention to inhibit [125I]-AB-MECA binding. Non-specific binding were determined using the respective compound at its highest concentration
smiles,measurement,value
"CCNc1cc(Cl)nc2c1ncn2[C@H]1[C@H](O)[C@H](O)[C@]2(C(=O)NC)C[C@H]12 [US20230416245, Compound 59]",Ki,0.23 nM
